From patent US11612574B2 (priority 2020, dated 2023)

Experiments:
[1] = system: Vero E6 cells infected with SARS-CoV-2; assay: Neutral red cytoprotection/cytotoxicity in Vero E6 cells infected with SARS-CoV-2; details: Vero E6, dose response
[2] = system: SARS-CoV-2; type: cell-based
[3] = target: sigma; details: non-selective sigma binding assay; cited from earlier work
[4] = target: T1, sigma-1 receptor (Homo sapiens, UniProt Q99720); details: cited from earlier work
[5] = system: interleukin-1beta and TNF-alpha; details: in vivo; cited from earlier work
[6] = system: Calu-3 cells; assay: Cell death and viability of Calu-3 cells (cytotoxicity, no virus); type: cell-based, human
Description: 4. Cytotoxicity assays were conducted in parallel, for these no virus was added.
a. Cell viability: was assessed by staining cells with the ViaStain™ Calcein AM/Hoechst/PI Viability Kit (Nexcelom, Cat #CS5-V006-1) per manufacturer's instructions and imaging with the Celígo Imaging Cytometer (Nexcelom). Briefly, live and metabolically active cells were detected using the Calcein AM stain (Ex/Em: 488/520). Dead cells were detected using the propidium iodide stain (PI, Ex/Em: 493/636). Total number of cells were detected using the Hoechst-nuclear stain (Ex/Em: 352/461). Thus, cell viability was assessed by comparing live cells counts (normalized to total cell count) across treatment groups, and cell cytotoxicity was assessed through comparison of dead cell counts (normalized to total cells) across treatment groups.

[7] = system: Candida albican; details: in vivo; cited from earlier work
[8] = system: CD4+ and CD8+ lymphocytes; details: cited from earlier work
[9] = target: sigma-2 receptor (Homo sapiens, UniProt Q5BJF2); details: cited from earlier work
[10] = target: T1, sigma-1 receptor; details: cited from earlier work; remark: listed apart in the source
[11] = system: SARS-CoV-2; details: cited from earlier work

T1 sequence (Q99720 whole entry, species assumed): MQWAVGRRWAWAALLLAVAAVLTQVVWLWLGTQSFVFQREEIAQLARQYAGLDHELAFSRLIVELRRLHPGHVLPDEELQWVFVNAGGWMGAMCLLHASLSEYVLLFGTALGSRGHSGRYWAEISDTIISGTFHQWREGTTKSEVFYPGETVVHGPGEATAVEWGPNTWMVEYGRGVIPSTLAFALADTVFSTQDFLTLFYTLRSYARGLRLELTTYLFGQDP
Chain of sigma-2 receptor (Q5BJF2 whole entry): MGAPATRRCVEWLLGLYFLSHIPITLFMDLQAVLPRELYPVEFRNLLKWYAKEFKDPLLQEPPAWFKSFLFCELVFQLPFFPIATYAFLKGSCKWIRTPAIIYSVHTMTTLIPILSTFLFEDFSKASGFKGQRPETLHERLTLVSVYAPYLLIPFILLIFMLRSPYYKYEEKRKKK

CCNC(C)Cc1cccc(C(F)(F)F)c1 (racemic) [fenfluramine, (RS)—N-ethyl-1-[3-(trifluoromethyl)phenyl]propan-2-amine]
neutral red signal, virus infected cells ([1]; SARS-CoV-2 infected MOI 0.1, FIG. 4B): ~0.2
neutral red signal, uninfected cells ([1]; uninfected cells, FIG. 4B): ~1.0
average viral replication (mNeonGreen fluorescence normalized to total cell count) [2]: about 2·10^3
SARS-CoV-2 viral replication compared with control cells receiving only vehicle ([2]; Calu-3 cells, 50 mM fenfluramine as printed, 72 hr): statistically significantly (p<0.0001) lower
Ki [3]: 266 nM
sigma-1 receptor modulation [4]: positive allosteric modulator
production of interleukin-1beta and TNF-alpha [5]: suppressed
cytotoxicity (cell death and viability versus controls) ([6]; 20 μg/ml): not cytotoxic
cytotoxicity (cell death and viability versus controls) ([6]; 40 μg/ml): cytotoxic

CCN[C@@H](C)Cc1cccc(C(F)(F)F)c1 (racemic) [dexfenfluramine]
CD3+ and CD8+ lymphocytes [7]: marked increase
numbers of NK1.1+ cells [7]: modest increase
number of CD4+ and CD8+ lymphocytes that produced IFN-gamma ([8]; HIV+ or HIV- patients): increased
number of CD8+ lymphocytes that produce TNF-alpha ([8]; HIV+ patients): increased
amount of IL-2 produced by CD4+ and CD8+ lymphocytes ([8]; lymphocytes from HIV+ patients): increased
sigma-1 receptor modulation [4]: positive modulators

CCN(CC)CCCC(C)Nc1ccnc2cc(Cl)ccc12 (centres unmarked) [Chloroquine]
binding/activity at sigma-2 receptor [9]: low uM activity
binding/activity at sigma-1 receptor [10]: mid-nM activity

CCN(CCO)CCCC(C)Nc1ccnc2cc(Cl)ccc12 (centres unmarked) [hydroxy-chloroquine]
inhibition of SARS-CoV-2 in vitro [11]: inhibit

O=C(CCCN1CCC(O)(c2ccc(Cl)cc2)CC1)c1ccc(F)cc1 [Haloperidol]
binding/activity at sigma-2 receptor [9]: low nM range
inhibition of SARS-CoV-2 in vitro [11]: inhibit
